Values of other authors, collected in patent publication US20060134244A1, “Breast health supplement and detoxification preparations” (priority 2004, published 2006).

Legend:
[1] = system: precancerous lesions of the cervix and laryngeal papillomas; settings: pathologies with a human papillomavirus (HPV); reported
[2] = oral administration; reported

unabsorbed EDTA that remains within the digestive tract [2]	Structure (SMILES)	clinical effectiveness in treating precancerous lesions of the cervix and laryngeal papillomas [1]
	c1ccc2c(Cc3c[nH]c4ccccc34)c[nH]c2c1 [DIM, 3,3′-diindolylmethane]	clinically effective
	OCc1c[nH]c2ccccc12 [Example I3C, indole-3-carbinol]	clinically effective
95%	O=C(O)CN(CCN(CC(=O)O)CC(=O)O)CC(=O)O [EDTA, ethylenediamine-N,N,N′,N′-tetraacetic acid]	
